# Legend:
# [1] = molecular target: T1, Vitamin D3 receptor (Homo sapiens) (UniProt P11473); test: Effect on Gal4 DBD-hVDRdelta LBD construct transactivation in COS7 cells at 10(-7) M; format: functional, cell-based; conditions: COS-7
# T1 sequence (whole entry): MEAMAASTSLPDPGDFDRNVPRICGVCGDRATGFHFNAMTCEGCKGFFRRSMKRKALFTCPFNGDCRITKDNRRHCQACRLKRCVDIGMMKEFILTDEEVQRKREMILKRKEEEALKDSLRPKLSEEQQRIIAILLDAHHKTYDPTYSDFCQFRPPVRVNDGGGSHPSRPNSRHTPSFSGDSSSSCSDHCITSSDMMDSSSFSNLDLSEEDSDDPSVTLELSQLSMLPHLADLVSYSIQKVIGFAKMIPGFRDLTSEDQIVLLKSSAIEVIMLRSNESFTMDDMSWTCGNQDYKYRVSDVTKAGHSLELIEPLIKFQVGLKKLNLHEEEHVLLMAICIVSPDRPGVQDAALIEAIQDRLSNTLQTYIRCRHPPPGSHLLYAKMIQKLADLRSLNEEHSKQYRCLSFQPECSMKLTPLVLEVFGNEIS
# [2] = molecular target: T1, Vitamin D3 receptor (Homo sapiens); test: Effect on Gal4 DBD-hVDRdelta LBD construct transactivation in COS7 cells at 10(-5) M; format: functional, cell-based; conditions: COS-7
SMILES,Activity [1],Activity [2]
C=C1/C(=C\C=C2/CC[C@@H](CCCCCCCC(C)(C)O)[C@]3(C)CCC[C@@H]23)C[C@@H](O)C[C@@H]1O,6%,–
C=C1/C(=C\C=C2/CC[C@@H](CCCCCC(C)(C)O)[C@]3(C)CCC[C@@H]23)C[C@@H](O)C[C@@H]1O,8%,–
C=C1/C(=C\C=C2/CC[C@@H](CCCCCCC(C)(C)O)[C@]3(C)CCC[C@@H]23)C[C@@H](O)C[C@@H]1O,20%,100%
